Measured values taken from US20260008783A1, “MODULATORS OF FSHR AND USES THEREOF” (Celmatix Inc., priority 2022, published 2026).

Target: T1, Follicle Stimulating Hormone Receptor (FSHR) (Homo sapiens, UniProt P23945)
T1 construct: HA (N); expressed in transfected cells; host or cells: CHO-K1, transient transfection, pHM6 vector (CMV promoter)
T1 sequence (P23945 18-695): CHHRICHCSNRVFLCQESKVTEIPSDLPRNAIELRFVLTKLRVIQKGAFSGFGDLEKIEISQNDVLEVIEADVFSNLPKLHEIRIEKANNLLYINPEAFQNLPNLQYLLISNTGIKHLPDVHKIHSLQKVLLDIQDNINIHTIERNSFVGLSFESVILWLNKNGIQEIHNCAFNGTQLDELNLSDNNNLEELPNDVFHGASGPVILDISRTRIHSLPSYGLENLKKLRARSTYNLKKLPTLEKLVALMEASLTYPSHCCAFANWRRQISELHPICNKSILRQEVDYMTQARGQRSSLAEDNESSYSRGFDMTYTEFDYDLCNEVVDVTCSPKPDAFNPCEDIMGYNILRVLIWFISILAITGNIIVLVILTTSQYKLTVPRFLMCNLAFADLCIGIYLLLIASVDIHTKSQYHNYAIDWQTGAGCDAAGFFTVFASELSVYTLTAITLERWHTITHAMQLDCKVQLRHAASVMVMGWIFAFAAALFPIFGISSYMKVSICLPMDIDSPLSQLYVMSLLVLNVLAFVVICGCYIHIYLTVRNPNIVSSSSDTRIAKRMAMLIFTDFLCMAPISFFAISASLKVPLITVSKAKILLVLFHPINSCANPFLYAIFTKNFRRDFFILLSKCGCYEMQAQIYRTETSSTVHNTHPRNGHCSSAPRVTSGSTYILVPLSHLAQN
Test: HTRF cAMP agonist assay, FSHR, transiently transfected CHO-K1 cells
Type: cell-based
Conditions: CHO-K1 cells transiently expressing human FSHR, read-out: IC50 FSHR LANCE CAMP
Description: Example 17. HTRF cAMP Agonist Assay Protocol (for FSHR, TSHR, LHCGR)
Mammalian expression vectors designed to express either Follicle Stimulating Hormone Receptor (FSHR), Thyroid Stimulating Hormone Receptor (TSHR), or Luteinizing Hormone/Choriogonadotropin Receptor (LHCGR), were generated with an HA-tag on the N-terminus. All constructs were expressed under a human cytomegalovirus (CMV) immediate early enhancer and promoter using the pHM6 expression vector. The protein coding region was confirmed by sequence analysis to be in-frame and of the expected sequence, matching the following accession numbers: FSHR NM_000145, TSHR NM_000369, and LHCGR NM_000233.
HTRF cAMP assays were performed using Chinese Hamster Ovary (CHO-K1) cell lines transiently expressing human FSH, TSH, and LHCG receptors. 48 hours before the assay, cells were washed with PBS and then dissociated from tissue culture flasks with 0.25% trypsin. Dissociated cells were quenched in full media (F-12K Medium Corning REF #10-025-CV, 10% Avantor Seradigm FB Essence Cat #10803-034, 1% Penicillin/Streptomycin Cytiva HyClone Cat #SV30010) and then collected by centrifugation at 290×g for 5 min. Cells were resuspended in full media and dispensed into 150 mm cell culture dishes (Nest Scientific Cat #715001), at 2.3×10^6 cells/flask. 7 hours later, cells were transfected using Lipofectamine transfection reagent (Invitrogen Cat #18324020). Briefly, 60 μL of lipofectamine was dispensed into 2 mL of Opti-MEM (Gibco Cat #31985070) and incubated for 5 minutes at room temperature. Then, the mixture was added onto […] of DNA and incubated for another 20 minutes at room temperature. Cells were washed with warm (37° C.) PBS. 17.5 mL of Opti-MEM was dispensed onto the cells, followed by addition of the Opti-MEM/lipofectamine/DNA mixture. Cells were incubated overnight in a 37° C., 5% CO2 cell incubator. 17-19 hours later, Opti-MEM was aspirated off the cells and replaced with full media. Cells were incubated for another 24 hours in a 37° C., 5% CO2 cell incubator.
On the day of the assay, cells were washed with PBS and then dissociated from tissue culture flasks with 0.25% trypsin. Dissociated cells were quenched in full media and then collected by centrifugation at 290×g for 5 min. Cells were resuspended in PBS^+/+ (Corning REF #20-030-CV) to a concentration of 2×10^5 cells/mL. 10 μL/well of cells (2,000 cells/well) were dispensed into 384-well Corning plates (REF #3825), in triplicate. Cells were incubated at room temperature for 2 hours.
Example FSHR Modulator compounds were diluted in assay buffer (PBS^+/+, 0.05% BSA Sigma-Aldrich A3059, 500 μM IBMX Sigma-Aldrich 15879) to 3.5× the final assay concentration. 4 μL of test agonist was added to the cells and incubated for 1 hour at room temperature. 10 μL of cAMP detection reagents (LANCE Ultra cAMP Detection Kit PerkinElmer TRF0264) were dispensed onto the cells and plates were incubated for 2 hours at room temperature (cAMP detection reagents were made according to the PerkinElmer kit protocol). Plates were read on an Envision plate reader following PerkinElmer guidelines.
Raw data for all assays was transmitted directly from plate readers into a database for processing. All assay plates contained both positive and negative control wells to allow for data normalization and scaling. In agonist assays, negative control wells contained assay buffer and positive control wells contained […] positive control (10 nM Follicle Stimulating Hormone Sigma-Aldrich F4021, 50 nM Thyroid Stimulating Hormone Sigma-Aldrich 869006, 50 nM Luteinizing Hormone MyBioSource MBS5308806, for their respective receptors). All control wells contained DMSO at a final assay concentration that matched the test compound wells. […]
Percent control data were analyzed by non-linear regression with a sigmoidal dose response algorithm in the database to yield potency and efficacy data.

Structure (SMILES)	IC50
COc1cc2c(cc1-c1cncc(C#N)c1)-c1c(c(C(=O)N3CCCN(C)CC3)nn1-c1cc(Cl)cc(Cl)c1)CC2 [Compound 8-07A, 5-(1-(3,5-dichlorophenyl)-7-methoxy-3-(4-methyl-1,4-diazepane-1-carbonyl)-4,5-dihydro-1H-benzo[g]indazol-8-yl)nicotinonitrile]	3040 nM
COc1cc2c(cc1-c1ccn(C)n1)-c1c(c(C(=O)N(C)C(C)(C)C)nn1-c1cc(Cl)cc(Cl)c1)SC2 [Compound 3-04, N-tert-butyl-1-(3,5-dichlorophenyl)-7-methoxy-N-methyl-8-(1-methylpyrazol-3-yl)-5H-isothiochromeno[4,3-c]pyrazole-3-carboxamide]	223 nM
COc1cc2c(cc1-c1cncc(C(N)=O)c1)-c1c(c(C(=O)N3CCC(O)C3(C)C)nn1-c1cc(Cl)cc(Cl)c1)CC2 (centres unmarked) [Compound 8-90A]	2.15 nM
COc1cc2c(cc1-c1ccn(C)n1)-c1c(c(C(=O)N3CCOCC3(C)C)nn1-c1cc(Cl)cc(Cl)c1)OC2 [Compound 2-05, [1-(3,5-dichlorophenyl)-7-methoxy-8-(1-methylpyrazol-3-yl)-5H-isochromeno[4,3-c]pyrazol-3-yl]-(3,3-dimethylmorpholin-4-yl)methanone]	638 nM
COc1cc2c(cc1-c1ccn(C)n1)-c1c(c(C(=O)N3CCOCC3(C)C)nn1-c1cc(Cl)cc(Cl)c1)C2 [Compound 5-05, [1-(3,5-dichlorophenyl)-6-methoxy-7-(1-methylpyrazol-3-yl)-4H-indeno[1,2-c]pyrazol-3-yl]-(3,3-dimethylmorpholin-4-yl)methanone]	559 nM
COc1cc2c(cc1-c1ccn(C)n1)-c1c(c(C(=O)N(C)C(C)(C)C)nn1-c1cc(Cl)cc(Cl)c1)OC2 [Compound 2-06]	195 nM
COc1cc2c(cc1-c1ccn(C)n1)-c1c(c(C(=O)N(C)C(C)(C)C)nn1-c1ccsc1)C2 [Compound 5-08, N-tert-butyl-6-methoxy-N-methyl-7-(1-methylpyrazol-3-yl)-1-(3-thienyl)-4H-indeno[1,2-c]pyrazole-3-carboxamide]	195 nM
COc1cc2c(cc1-c1ccn(C)n1)-c1c(c(C(=O)N3CCOCC3(C)C)nn1-c1ccsc1)OC2 [Compound 2-07]	2410 nM
COc1cc2c(cc1-c1cncc(C(N)=O)c1)-c1c(c(C(=O)N3CC4CC3CN4C(=O)OC(C)(C)C)nn1-c1cc(Cl)cc(Cl)c1)CC2 (centres unmarked) [Compound 8-33A]	105 nM
COc1cc2c(cc1-c1cncc(C(N)=O)c1)-c1c(c(C(=O)N(C)C(C)(C)C)nn1-c1cc(Cl)cc(Cl)c1)[S+]([O-])C2 (single isomer, unassigned) [Compound 3-06]	43.4 nM
COc1cc2c(cc1-c1cncc(C(N)=O)c1)-c1c(c(C(=O)N3C4CNCC3C4)nn1-c1cc(Cl)cc(Cl)c1)CC2 [Compound 8-16B]	769 nM
COc1cc2c(cc1Br)-c1c(c(C(=O)N(C)C(C)(C)C)nn1-c1cc(Cl)cc(Cl)c1)CC2 [Compound 6-02A, 8-bromo-N-tert-butyl-1-(3,5-dichlorophenyl)-7-methoxy-N-methyl-4,5-dihydrobenzo[g]indazole-3-carboxamide]	861 nM

Results, then the compound that gave them:

IC50	Structure (SMILES)
32.4 nM	CCC1C(=O)NCCN1C(=O)c1nn(-c2cc(Cl)cc(Cl)c2)c2c1CCc1cc(OC)c(-c3cncc(C(N)=O)c3)cc1-2 (centres unmarked) [Compound 8-84]
75 nM	COc1cc(C(N)=O)cc(-c2cc3c(cc2OC)CSc2c(C(=O)N(C)C(C)(C)C)nn(-c4cc(Cl)cc(Cl)c4)c2-3)n1 [Compound 11-03, N-tert-butyl-8-(4-carbamoyl-6-methoxy-2-pyridyl)-1-(3,5-dichlorophenyl)-7-methoxy-N-methyl-5H-isothiochromeno[4,3-c]pyrazole-3-carboxamide]
120 nM	CCCN1CCN(C(=O)c2nn(-c3cc(Cl)cc(Cl)c3)c3c2CCc2cc(OC)c(-c4cncc(C(N)=O)c4)cc2-3)C(C)(C)C1 [Compound 8-63]
2.4 nM	COc1cc2c(cc1-c1cncc(C(N)=O)c1)-c1c(c(C(=O)N3[C@H](C)COC[C@@H]3C)nn1-c1cc(Cl)cc(Cl)c1)CC2 [Compound 8-49]
24.5 nM	COc1cc2c(cc1-c1cncc(C(N)=O)c1)-c1c(c(C(=O)N3CC(=O)NCC3(C)C)nn1-c1cc(Cl)cc(Cl)c1)CC2 [Compound 8-86]
67.4 nM	COc1cc2c(cc1-c1cncc(C(N)=O)c1)-c1c(c(C(=O)N3CCOCC3(C)C)nn1-c1cnccn1)CC2 [Compound 10-06]
17.6 nM	COc1cc2c(cc1-c1cncc(C(N)=O)c1)-c1c(c(C(=O)N3CCN(C)CC3(C)C)nn1-c1cc(Cl)cc(Cl)c1)CC2 [Compound 8-06]
441 nM	COc1cc2c(cc1-c1cncc(C(N)=O)c1)-c1c(c(C(=O)N3CC4CC3CN4)nn1-c1cc(Cl)cc(Cl)c1)CC2 (centres unmarked) [Compound 8-33]
449 nM	COc1cc2c(cc1-c1cncc(C(N)=O)c1)-c1c(c(C(=O)N3CCCNCC3)nn1-c1cc(Cl)cc(Cl)c1)CC2 [Compound 8-03, 5-[3-(1,4-diazepane-1-carbonyl)-1-(3,5-dichlorophenyl)-7-methoxy-4,5-dihydrobenzo[g]indazol-8-yl]pyridine-3-carboxamide]
4.24 nM	COc1cc2c(cc1-c1cncc(C(N)=O)c1)-c1c(c(C(=O)N3CCCC(=O)C3(C)C)nn1-c1cc(Cl)cc(Cl)c1)CC2 [Compound 8-67, 5-(1-(3,5-dichlorophenyl)-3-(2,2-dimethyl-3-oxopiperidine-1-carbonyl)-7-methoxy-4,5-dihydro-1H-benzo[g]indazol-8-yl)nicotinamide]
4.44 nM	COc1cc2c(cc1-c1cncc(C(N)=O)c1)-c1c(c(C(=O)N3CCN(C#N)CC3C)nn1-c1cc(Cl)cc(Cl)c1)CC2 (centres unmarked) [Compound 8-09, 5-[3-(4-cyano-2-methyl-piperazine-1-carbonyl)-1-(3,5-dichlorophenyl)-7-methoxy-4,5-dihydrobenzo[g]indazol-8-yl]pyridine-3-carboxamide]
3620 nM	COc1cc2c(cc1-c1cncc(C(N)=O)c1)-c1c(c(C(=O)N3CCNC(=O)C3(C)C)nn1-c1cccnn1)CC2 [Compound 15-06]
28.3 nM	COc1cc2c(cc1-c1cncc(C(N)=O)c1)-c1c(c(C(=O)N3CCCNCC3(C)C)nn1-c1cc(Cl)cc(Cl)c1)CC2 [Compound 8-04, 5-[1-(3,5-dichlorophenyl)-3-(2,2-dimethyl-1,4-diazepane-1-carbonyl)-7-methoxy-4,5-dihydrobenzo[g]indazol-8-yl]pyridine-3-carboxamide]
2180 nM	COc1cc2c(cc1-c1cncc(C(N)=O)c1)-c1c(c(C(=O)N(C)C3CCN(C)C3)nn1-c1cc(Cl)cc(Cl)c1)CC2 (centres unmarked) [Compound 8-28]
